Measurements published in patent US12679878B2, “CRF2 receptor agonists and their use in therapy” (SANOFI, priority 2020, dated 2026).
Read-outs that look alike come from different tables or passages of the source. Starred links: 1 amine or outer side, 2 acyl side, 3 side chain; linkers in the order of their positions; H or OH if unused. Non-standard residues stand in square brackets, D forms with d. Residues, ends and D or L forms follow the SMILES beside them. Groups on a side chain read outwards from the residue. *: point of attachment. C18 diacid = O=C(O)CCCCCCCCCCCCCCCCC(=O)*; γGlu = O=C(O)[C@H](CCC(=O)[*:2])N[*:1]; Palmitoyl = CCCCCCCCCCCCCCCC(=O)*; AEEA = NCCOCCOCC(=O)O; Aib = CC(C)(N)C(=O)O

What was measured:
human CRF2α receptor = target: T1, human CRF2α receptor (Homo sapiens, UniProt Q13324); assay: cAMP agonism at human CRF2 α receptor in TeloHEAC cells (Example 7); format: cell-based; conditions: cAMP HTRF, TeloHEAC cells stably expressing human CRF2 α
T1 construct: expressed in transfected cells; host or cells: TeloHEAC
T1 sequence (Q13324 1-411): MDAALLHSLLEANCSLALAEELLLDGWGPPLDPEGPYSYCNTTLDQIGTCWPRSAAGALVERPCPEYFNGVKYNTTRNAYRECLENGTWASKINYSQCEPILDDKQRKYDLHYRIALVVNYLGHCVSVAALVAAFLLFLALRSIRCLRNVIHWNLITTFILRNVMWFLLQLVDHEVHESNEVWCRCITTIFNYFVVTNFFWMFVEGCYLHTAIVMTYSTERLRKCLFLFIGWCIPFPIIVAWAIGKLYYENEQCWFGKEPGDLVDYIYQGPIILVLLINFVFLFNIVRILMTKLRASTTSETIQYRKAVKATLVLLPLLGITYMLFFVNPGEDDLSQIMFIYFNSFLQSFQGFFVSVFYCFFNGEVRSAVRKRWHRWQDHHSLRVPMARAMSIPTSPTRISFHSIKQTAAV
Procedure, shortened: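 Cryopreserved cells are thawed, washed and resuspended in IBMX-containing (2 mM) HEPES-buffered HBSS with or without 0.1% HSA. Compound incubation runs 30 min at room temperature with 2000 cells per well, then cAMP is measured by time-resolved FRET. Potency is expressed as EC50, efficacy relative to urocortin 2 at 1000 nM.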

CRF1R receptor = target: T2, CRF1R receptor (Homo sapiens, UniProt P34998); assay: cAMP activity at anti-target CRF1R, CRF1R-overexpression CHO cell line (Example 9); format: cell-based; conditions: CRF1R-overexpression CHO cell line; for EC50: 0% HSA; for Emax: read-out: Emax (%)
T2 construct: host or cells: CHO-K1 clone 2
T2 sequence (P34998 24-415): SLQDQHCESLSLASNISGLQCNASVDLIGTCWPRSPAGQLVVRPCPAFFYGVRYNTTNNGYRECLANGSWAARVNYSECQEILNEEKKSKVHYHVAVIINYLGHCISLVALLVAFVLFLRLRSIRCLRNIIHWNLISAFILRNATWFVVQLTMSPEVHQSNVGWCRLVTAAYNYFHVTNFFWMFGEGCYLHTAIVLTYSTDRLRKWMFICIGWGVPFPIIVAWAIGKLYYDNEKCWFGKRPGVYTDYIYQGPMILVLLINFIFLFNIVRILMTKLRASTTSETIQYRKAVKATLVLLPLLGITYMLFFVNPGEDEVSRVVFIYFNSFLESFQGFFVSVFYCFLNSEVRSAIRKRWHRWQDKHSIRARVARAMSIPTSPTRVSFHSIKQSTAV
Procedure, shortened: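 Using thawed CRF1R-overexpressing CHO cells at 2000 per well, compound is applied for 30 min at RT in HBSS/HEPES buffer with IBMX. Cellular cAMP content is determined via HTRF, and percent activity is calculated against 1000 nM UCN2 defined as 100%.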

[1] = Solubility in buffer systems by UPLC-UV (Example 13); format: physicochemical; conditions: pH 4.5, Solubility in Buffer B [mg/ml]
Procedure, shortened: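 Quantitation used UV peak area from UPLC of the 1:10-diluted supernatant, set against a reference-compound standard curve with extinction coefficients adjusted for amino acid sequence.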

[2] = Physical stability, Thioflavin T fibrillation assay (Example 14); format: physicochemical; conditions: 3 mg/ml, 37° C. shaking
Protocol: The physical stability of the compounds was assessed using a Thioflavin T (ThT) assay.
The time course for fibril formation often follows the characteristic shape of a sigmoidal curve and can be separated into three regions: a lag phase, a fast growth phase, and a plateau phase. The typical fibril formation process starts with the lag phase in which the amount of partially folded peptide turned into fibrils is not significant enough to be detected. The lag-time corresponds to the time the critical mass of the nucleus is built. Afterwards, a drastic elongation phase follows and fibril concentration increases rapidly. Therefore, by measuring the increase in fluorescence intensity attributable to ThT as well as the lag time of the increase, the fibrillation tendency of a peptide can be determined, thereby providing a measure of the physical stability of the peptide.
In the present study, test compounds were diluted in buffer to a final concentration of 3 mg/ml.
The fibrillation tendencies of the peptides were determined under stress using a Fluoroskan Ascent FL or Fluoroskan Ascent fluorometer. […] Plates were sealed with Scotch Tape (Quiagen). Samples were stressed by continuous cycles of 10 s shaking at 960 rpm and 50 s rest period at 37° C. Fibril development was monitored by measuring fluorescence intensity every 20 minutes. For each sample, eight replicates were tested.

rat CRF2R α receptor = assay: cAMP agonism at rat CRF2R α receptor in A7R5 rat aortic smooth muscle cells (Example 8); format: cell-based; conditions: cAMP HTRF, A7R5 rat aortic smooth muscle cell line, 0% HSA
Procedure, shortened: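 Potency (EC50) is the concentration reaching half-maximal activation, with responses scaled so that 1000 nM urocortin 2 equals 100%. Intracellular cAMP was quantified by homogeneous time-resolved fluorescence at 665/620 nm, 1 h after lysis-buffer reagents. Compound stimulation lasted 30 min at room temperature on 2000 IBMX-treated (2 mM) cells per well in HEPES-buffered HBSS.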

[3] = 0% HSA, read-out: EC50 [nM], 0% HSA
[4] = Buffer A: 100 mM acetate buffer, pH 4.5
[5] = 0.1% HSA, read-out: EC50 [nM], 0.1% HSA
[6] = Buffer B: 100 mM acetate buffer, pH 4.5, 2.7 mg/ml m-cresol

EC50 (human CRF2α receptor; [3]) [nM]	EC50 (CRF1R receptor) [nM]	Emax (CRF1R receptor) [%]	solubility at 1 h [1] [µg/mL]	Increase in FI (fluorescence intensity) [2, 4]	Lag time [2, 4] [h]	EC50 (human CRF2α receptor; [5]) [nM]	EC50 (rat CRF2R α receptor) [nM]	Increase in FI (fluorescence intensity) [2, 6]	Lag time [2, 6] [h]	SMILES
0.04	> 1000	17.4	> 9600	Yes	18					CCCCCCCCCCCCCCCC(=O)N[C@@H](CCC(=O)NCCCC[C@H](NC(=O)[C@H](CC(C)C)NC(=O)CNC(=O)[C@@H](NC(=O)[C@@H]1CCCN1C(=O)[C@@H](NC(=O)[C@H](CC(=O)O)NC(=O)[C@H](CC(C)C)NC(=O)[C@H](CO)NC(=O)[C@H](CC(C)C)NC(=O)[C@@H](NC(=O)[C@@H](N)[C@@H](C)CC)C(C)C)C(C)C)[C@@H](C)CC)C(=O)N[C@@H](CCC(N)=O)C(=O)N[C@@H](CCCCN)C(=O)N[C@@H](CC(C)C)C(=O)N[C@@H](CC(C)C)C(=O)N[C@@H](CCCCN)C(=O)N[C@@H](CCC(N)=O)C(=O)N[C@@H](CCC(=O)O)C(=O)N[C@@H](CCCCN)C(=O)N[C@@H](CCC(N)=O)C(=O)N[C@@H](CCC(=O)O)C(=O)N[C@@H](CCCCN)C(=O)N[C@@H](CCC(=O)O)C(=O)N[C@@H](CCCCN)C(=O)N[C@@H](CCC(N)=O)C(=O)N[C@@H](CCC(N)=O)C(=O)N[C@@H](C)C(=O)N[C@@H](CCC(=O)O)C(=O)N[C@H](C(=O)N[C@@H](CC(N)=O)C(=O)N[C@@H](C)C(=O)N[C@@H](CCCCN)C(=O)N[C@H](C(=O)N[C@@H](CC(C)C)C(=O)N[C@@H](C)C(=O)N[C@@H](CCC(N)=O)C(=O)N[C@H](C(N)=O)C(C)C)[C@@H](C)CC)[C@@H](C)O)C(=O)O [compound 4] (H-IVLSLDVPIGLK([γGlu-Palmitoyl])QKLLKQEKQEKEKQQAETNAKILAQV-NH2; N-terminus assumed)
0.07	> 1000	7.51				2.99	1.83	No	>45	CC[C@H](C)[C@H](N)C(=O)N[C@H](C(=O)N[C@@H](CC(C)C)C(=O)N[C@@H](CO)C(=O)N[C@@H](CC(C)C)C(=O)N[C@@H](CC(=O)O)C(=O)N[C@@H](C(=O)N1CCC[C@H]1C(=O)N[C@H](C(=O)NCC(=O)N[C@@H](CC(C)C)C(=O)N[C@@H](CCCCNC(=O)COCCOCCNC(=O)COCCOCCNC(=O)CC[C@H](NC(=O)CCCCCCCCCCCCCCCCC(=O)O)C(=O)O)C(=O)N[C@@H](CCC(N)=O)C(=O)N[C@H](C(=O)N[C@@H](CC(C)C)C(=O)N[C@@H](CC(C)C)C(=O)N[C@@H](CCCCN)C(=O)N[C@@H](CCC(N)=O)C(=O)N[C@@H](CCC(=O)O)C(=O)N[C@@H](CCCNC(=N)N)C(=O)N[C@@H](CCC(N)=O)C(=O)N[C@@H](CCCCN)C(=O)N[C@@H](CCCCN)C(=O)NC(C)(C)C(=O)N[C@@H](CCCNC(=N)N)C(=O)N[C@@H](CCC(=O)O)C(=O)N[C@@H](CCC(N)=O)C(=O)N[C@@H](C)C(=O)N[C@@H](CCC(=O)O)C(=O)N[C@H](C(=O)N[C@@H](CC(N)=O)C(=O)N[C@@H](CCCCN)C(=O)N[C@@H](CCCNC(=N)N)C(=O)N[C@H](C(=O)N[C@@H](CC(C)C)C(=O)N[C@@H](CCC(=O)O)C(=O)N[C@@H](CCCNC(=N)N)C(=O)N[C@H](C(N)=O)C(C)C)[C@@H](C)CC)[C@@H](C)O)[C@@H](C)CC)[C@@H](C)CC)C(C)C)C(C)C [compound 83] (H-IVLSLD[dV]PIGLK([AEEA-AEEA-γGlu-C18 diacid])QILLKQERQKK[Aib]REQAETNKRILERV-NH2; N-terminus assumed)
0.11						2.44	0.39	No	>45	CC[C@H](C)[C@H](N)C(=O)N[C@H](C(=O)N[C@@H](CC(C)C)C(=O)N[C@@H](CO)C(=O)N[C@@H](CC(C)C)C(=O)N[C@@H](CC(=O)O)C(=O)N[C@@H](C(=O)N1CCC[C@H]1C(=O)N[C@H](C(=O)N[C@@H](CCCCN)C(=O)N[C@@H](CC(C)C)C(=O)N[C@@H](CCCCNC(=O)COCCOCCNC(=O)COCCOCCNC(=O)CC[C@H](NC(=O)CCCCCCCCCCCCCCCCC(=O)O)C(=O)O)C(=O)N[C@@H](CCC(N)=O)C(=O)N[C@H](C(=O)N[C@@H](CC(C)C)C(=O)N[C@@H](CC(C)C)C(=O)N[C@@H](CCC(=O)O)C(=O)N[C@@H](CCC(N)=O)C(=O)N[C@@H](CCC(=O)O)C(=O)N[C@@H](CCCNC(=N)N)C(=O)N[C@@H](CCC(N)=O)C(=O)N[C@@H](CCCCN)C(=O)NC(C)(C)C(=O)N[C@@H](CCC(N)=O)C(=O)N[C@@H](CCCNC(=N)N)C(=O)N[C@@H](CCC(N)=O)C(=O)N[C@@H](CCC(N)=O)C(=O)N[C@@H](C)C(=O)N[C@@H](CCC(=O)O)C(=O)N[C@@H](CCCCN)C(=O)N[C@@H](CC(N)=O)C(=O)N[C@@H](CCCCN)C(=O)N[C@@H](CCC(N)=O)C(=O)N[C@H](C(=O)N[C@@H](CC(C)C)C(=O)N[C@@H](C)C(=O)N[C@@H](CCC(N)=O)C(=O)N[C@H](C(N)=O)C(C)C)[C@@H](C)CC)[C@@H](C)CC)[C@@H](C)CC)C(C)C)C(C)C [compound 131] (H-IVLSLD[dV]PIKLK([AEEA-AEEA-γGlu-C18 diacid])QILLEQERQK[Aib]QRQQAEKNKQILAQV-NH2)
0.38	> 1000	36.9				8.76	0.79	No	>45	CC[C@H](C)[C@H](N)C(=O)N[C@H](C(=O)N[C@@H](CC(C)C)C(=O)N[C@@H](CO)C(=O)N[C@@H](CC(C)C)C(=O)N[C@@H](CC(=O)O)C(=O)N[C@@H](C(=O)N1CCC[C@H]1C(=O)N[C@H](C(=O)N[C@@H](CCCCN)C(=O)N[C@@H](CC(C)C)C(=O)N[C@@H](CCCCNC(=O)COCCOCCNC(=O)COCCOCCNC(=O)CC[C@H](NC(=O)CCCCCCCCCCCCCCCCC(=O)O)C(=O)O)C(=O)N[C@@H](CCC(N)=O)C(=O)N[C@H](C(=O)N[C@@H](CC(C)C)C(=O)N[C@@H](CC(C)C)C(=O)N[C@@H](CCC(=O)O)C(=O)N[C@@H](CCC(N)=O)C(=O)N[C@@H](CCC(=O)O)C(=O)N[C@@H](CCCNC(=N)N)C(=O)N[C@@H](CCC(N)=O)C(=O)N[C@@H](CCCCN)C(=O)NC(C)(C)C(=O)N[C@@H](CCC(N)=O)C(=O)N[C@@H](CCCNC(=N)N)C(=O)N[C@@H](CCC(=O)O)C(=O)N[C@@H](CCC(N)=O)C(=O)N[C@@H](C)C(=O)N[C@@H](CCC(=O)O)C(=O)N[C@@H](CCCCN)C(=O)N[C@@H](CC(N)=O)C(=O)N[C@@H](CCCCN)C(=O)N[C@@H](CCC(N)=O)C(=O)N[C@H](C(=O)N[C@@H](CC(C)C)C(=O)N[C@@H](CCC(=O)O)C(=O)N[C@@H](CCCNC(=N)N)C(=O)N[C@H](C(N)=O)C(C)C)[C@@H](C)CC)[C@@H](C)CC)[C@@H](C)CC)C(C)C)C(C)C [compound 132] (H-IVLSLD[dV]PIKLK([AEEA-AEEA-γGlu-C18 diacid])QILLEQERQK[Aib]QREQAEKNKQILERV-NH2)
